These are literature values, as cited in patent US6528539B1, “Stable formulation containing fumagillin” (Sanofi-Synthelabo, priority 1999, dated 2003).

For the data set the following is noted: fumagillin as such; must be stored at −80° C.; literature studies named in b6.

As to `COC1C(OC(=O)/C=C/C=C/C=C/C=C/C(=O)O)CCC2(CO2)C1[C@@]1(C)O[C@@H]1CC=C(C)C` (stereo in doubt) [Fumagillin, 2,4,6,8-decatetraenedioic acid mono[4-(1,2-epoxy-1,5-dimethyl-4-hexenyl)-5-methoxy-1-oxaspiro[2.5]oct-6-yl] ester], the “stability at ambient temperature” value is “highly unstable at ambient temperature”.
